Like-named read-outs stand apart in the source and are kept apart here.
Tests used:
Format in all cases: in vivo
Spodoptera eridania = experiment: Action on Southern Armyworm (Spodoptera eridania), 2nd Instar Larvae; conditions: for mortality at 300 ppm: read-out: mortality in comparison with untreated controls
Procedure, shortened: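 Compounds in 50% acetone/water with 0.01% nonionic surfactant sprayed electrostatically onto Lima bean plants at 1st true leaf stage. After drying, 10–11 2nd-instar larvae bagged with each pot, kept about 25 °C, 20–40% RH. Mortality and reduced feeding scored at 4 days vs untreated plants.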

Aedes aegypti = experiment: whole plant or invertebrate; conditions: for mortality at 800 ppm: Aedes aegypti, 48 h, read-out: mortality in comparison with untreated controls; for mortality in comparison with untreated controls: 800 ppm, larvae, 2 days
Procedure, shortened: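 Freshly hatched larvae (5-15 per well) were held in tap water, and compounds formulated in 25% DMSO/water were sprayed onto diet at several concentrations in duplicate. Larval mortality was scored visually after 2 days at 28±1 °C, 80±5% RH.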

Anthonomus grandis = experiment: Action on Boll Weevil (Anthonomus grandis); conditions: for mortality at 800 ppm: Anthonomus grandis, 120 h, read-out: mortality in comparison with untreated controls
Procedure, shortened: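 Compounds in 75:25 water:DMSO sprayed at several concentrations onto insect diet in microtiter wells holding 5-10 eggs, two replicates. Plates kept 5 days at about 25±1 °C and 75±5% RH; egg and larval mortality scored visually.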

Heliothis virescens = experiment: Action on Tobacco Budworm (Heliothis virescens); conditions: for mortality at 800 ppm: Heliothis virescens, 120 h, read-out: mortality in comparison with untreated controls
Procedure, shortened: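 Compounds in 25% DMSO/75% water were sprayed at several concentrations onto insect diet in microtiter wells holding 15-25 eggs, two replications. After 5 days at about 28±1 °C and 80±5% RH, egg and larval mortality was scored visually.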

Dichromothrips corbetti = experiment: Action on Orchid Thrips (Dichromothrips corbetti); conditions: for mortality at 300 ppm: Dichromothrips corbetti, read-out: mortality in comparison with untreated controls
Description: Example B2: Action on Orchid Thrips (Dichromothrips corbetti)
Dichromothrips corbetti adults used for bioassay were obtained from a colony maintained continuously under laboratory conditions. For testing purposes, the test compound is diluted in a 1:1 mixture of acetone: water (vol: vol), plus Kinetic® HV at a rate of 0.01% v/v.
Thrips potency of each compound was evaluated by using a floral-immersion technique. All petals of individual, intact orchid flowers were dipped into treatment solution and allowed to dryin Petri dishes. Treated petals were placed into individual re-sealable plastic along with about 20 adult thrips. All test arenas were held under continuous light and a temperature of about 28 °C for duration of the assay. After 3 days, the numbers of live thrips were counted on each petal. The percent mortality was recorded 72 hours after treatment.

Plutella xylostella [1] = experiment: Action on Diamond Back Moth (Plutella xylostella), cabbage leaf dip, 3rd instar larvae; conditions: for mortality at 300 ppm: read-out: mortality in comparison with untreated controls
Procedure, shortened: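 Cabbage leaves dipped in compound solution (1:1 water:acetone, 0.01% v/v surfactant), air-dried, then infested with ten 3rd-instar larvae in petri dishes on moist filter paper. Mortality scored at 72 h after treatment; feeding damage rated on a 0–100% scale.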

Plutella xylostella [2] = experiment: Action on Diamond Back Moth (Plutella xylostella), microtiter plates, insect diet, eggs; conditions: 800 ppm; egg and larval mortality; 5 days
Procedure, shortened: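 Diet in 96-well plates with 15–25 P. xylostella eggs, sprayed with compound formulated in 75% water/25% DMSO at several concentrations, two replicates; mixtures combined in equal volumes. Incubated 5 days at 28±1 °C, 80±5% RH, then egg and larval mortality scored visually.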

[3] = Spodoptera eridania, 96 h, 300 ppm, 2nd instar larvae, 4 days after treatment
[4] = 800 ppm, egg and larval mortality, 5 days
[5] = 300 ppm, adults, 72 hours after treatment
[6] = Plutella xylostella, foliar, 300 ppm, 3rd instar larvae, 72 hours after treatment
[7] = Plutella xylostella, foliar, 72 h
[8] = 300 ppm, 2nd instar larvae, 4 days after treatment
[9] = 300 ppm, 3rd instar larvae, 72 hours after treatment

Row | Structure (SMILES) | mortality in comparison with untreated controls (Spodoptera eridania; [8]) | mortality in comparison with untreated controls (Aedes aegypti) | mortality in comparison with untreated controls (Anthonomus grandis; [4]) | mortality in comparison with untreated controls (Heliothis virescens; [4]) | mortality in comparison with untreated controls (Dichromothrips corbetti; [5]) | mortality in comparison with untreated controls (Plutella xylostella [1]; [9]) | mortality in comparison with untreated controls (Plutella xylostella [2]) | also measured
1 | Cc1ccc(C(C)C)c(N2C(=O)CS/C2=N\C(=O)Nc2ccc(-n3cc(NC(=O)c4ccc(OC(F)(F)F)cc4)c(C)n3)cc2C)c1 [Example C-1, N-[1-[4-[[(Z)-[3-(2-isopropyl-5-methyl-phenyl)-4-oxo-thiazolidin-2-ylidene]carbamoyl]amino]-3-methyl-phenyl]-3-methyl-pyrazol-4-yl]-4-(trifluoromethoxy)benzamide] |  |  |  |  |  |  |  | mortality at 300 ppm (Spodoptera eridania; [3]): ≥ 75%; mortality at 800 ppm (Aedes aegypti): ≥ 50%; mortality at 800 ppm (Anthonomus grandis; [4]): ≥ 75%; mortality at 800 ppm (Heliothis virescens; [4]): ≥ 75%; mortality at 300 ppm (Dichromothrips corbetti; [5]): ≥ 75%; mortality at 300 ppm (Plutella xylostella [1]; [6]): ≥ 75%
2 | Cc1ccc(C(C)C)c(N2C(=O)CS/C2=N\C(=O)Nc2ccc(-n3cc(N(C)C(=O)c4ccc(OC(F)(F)F)cc4)c(C)n3)cc2)c1 [Example C-2, N-[1-[4-[[(Z)-[3-(2-isopropyl-5-methyl-phenyl)-4-oxo-thiazolidin-2-ylidene]carbamoyl]amino]phenyl]-3-methyl-pyrazol-4-yl]-N-methyl-4-(trifluoromethoxy)benzamide] |  |  |  |  |  |  |  | mortality at 300 ppm (Spodoptera eridania; [3]): ≥ 75%; mortality at 10 ppm (Spodoptera eridania; Spodoptera eridania, 96 h, Table R-1 comparative data, dose 10 ppm, test species PRODER, procedure analogous to B7): 82.5%; mortality at 800 ppm (Aedes aegypti): ≥ 50%; mortality at 800 ppm (Anthonomus grandis; [4]): ≥ 75%; mortality at 800 ppm (Heliothis virescens; [4]): ≥ 75%; mortality at 300 ppm (Dichromothrips corbetti; [5]): ≥ 75%; mortality at 10 ppm (Plutella xylostella [1]; Plutella xylostella, foliar, 72 h, Table R-1 comparative data, dose 10 ppm, test species PLUTMA, procedure analogous to B6): 100%; mortality at 300 ppm (Plutella xylostella [1]; [6]): ≥ 75%
3 | Cc1ccc(C(C)C)c(N2C(=O)CS/C2=N\C(=O)Nc2ccc(-n3nc(C)c(N(C)C(=O)c4ccc(OC(F)(F)F)cc4)c3Cl)cc2)c1 [Example C-3, N-[5-chloro-1-[4-[[(Z)-[3-(2-isopropyl-5-methyl-phenyl)-4-oxo-thiazolidin-2-ylidene]carbamoyl]amino]phenyl]-3-methyl-pyrazol-4-yl]-N-methyl-4-(trifluoromethoxy)benzamide] |  |  |  |  |  |  |  | mortality at 300 ppm (Spodoptera eridania; Spodoptera eridania, 96 h): ≥ 75%; mortality at 800 ppm (Aedes aegypti): ≥ 50%; mortality at 800 ppm (Anthonomus grandis): ≥ 75%; mortality at 800 ppm (Heliothis virescens): ≥ 75%; mortality at 300 ppm (Dichromothrips corbetti; 72 h): ≥ 75%; mortality at 300 ppm (Plutella xylostella [1]; [7]): ≥ 75%
4 | Cc1ccc(C(C)C)c(N2C(=O)CS/C2=N\C(=O)Nc2ccc(-n3nc(C)c(NC(=O)c4ccc(OC(F)(F)F)cc4)c3C)cc2Cl)c1 [Example C-4, N-[1-[3-chloro-4-[[(Z)-[3-(2-isopropyl-5-methyl-phenyl)-4-oxo-thiazolidin-2-ylidene]carbamoyl]amino]phenyl]-3,5-dimethyl-pyrazol-4-yl]-4-(trifluoromethoxy)benzamide] |  |  |  |  |  |  |  | mortality at 300 ppm (Spodoptera eridania; Spodoptera eridania, 96 h): ≥ 75%; mortality at 800 ppm (Aedes aegypti): ≥ 50%; mortality at 800 ppm (Anthonomus grandis): ≥ 75%; mortality at 800 ppm (Heliothis virescens): ≥ 75%; mortality at 300 ppm (Dichromothrips corbetti; 72 h): ≥ 75%; mortality at 300 ppm (Plutella xylostella [1]; [7]): ≥ 75%
5 | Cc1nn(-c2ccc(NC(=O)/N=C3\SCC(=O)N3c3cc(C4CC4)ccc3C(C)C)c(F)c2)cc1NC(=O)c1ccc(OC(F)(F)F)cc1 [Example C-7] | at least 75% | at least 50% | at least 75% | at least 75% | at least 75% | at least 75% |  | 
6 | Cc1ccc(C(C)C)c(N2C(=O)CSC2=NC(=O)Nc2ccc(-n3cc(NC(=O)c4ccc(OC(F)(F)F)cc4)c(C)n3)cc2)c1 [Example C-9] | at least 75% | at least 50% | at least 75% | at least 75% | at least 75% | at least 75% |  | 
7 | Cc1nn(-c2ccc(NC(=O)N=C3SCC(=O)N3c3cc(C#N)ccc3C(C)C)cc2)cc1NC(=O)c1ccc(OC(F)(F)F)cc1 [Example C-10] | at least 75% | at least 50% | at least 75% | at least 75% | at least 75% | at least 75% |  | 
8 | Cc1ccc(C(F)(F)F)c(N2C(=O)CSC2=NC(=O)Nc2ccc(-n3cc(N(C)C(=O)c4ccc(OC(F)(F)F)cc4)c(C)n3)cc2)c1 [Example C-11] | at least 75% | at least 50% | at least 75% | at least 75% | at least 75% | at least 75% |  | 
9 | Cc1nn(-c2ccc(NC(=O)/N=C3\SCC(=O)N3c3cc(N(C)C)ccc3C(C)C)cc2)c(C)c1NC(=O)c1ccc(OC(F)(F)F)cc1 [Example C-17] | at least 75% | at least 50% | at least 75% | at least 75% | at least 75% | at least 75% |  | 
10 | Cc1ccc(C(C)C)c(N2C(=O)CS/C2=N\C(=O)Nc2ccc(-n3nc(C)c(NC(=O)c4ccc(OC(F)(F)F)cc4)c3C)nc2)c1 [Example C-22] | at least 75% |  |  |  | at least 75% | at least 75% |  | 
11 | COc1ccc(C(C)C)c(N2C(=O)CSC2=NC(=O)Nc2ccc(-n3nc(C)c(NC(=O)c4ccc(OC(F)(F)F)cc4)c3C)cc2Cl)c1 [Example C-44] |  | at least 50% | at least 75% | at least 75% | at least 75% | at least 75% |  | 
12 | Cc1ccc(C(C)C)c(N2C(=O)CSC2=NC(=O)Nc2ccc(-n3nc(C)c(NC(=O)c4cc(F)c(F)c(F)c4)c3C)cc2)c1 [Example C-117] | at least 75% | at least 50% | at least 75% | at least 75% |  |  | at least 75% | 
13 | Cc1ccc(C(C)C)c(N2C(=O)CSC2=NC(=O)Nc2ccc(-n3nc(C)c(NC(=O)c4ccc(Cl)c(C#N)c4)c3C)cc2)c1 [Example C-118] |  |  | at least 75% |  |  | at least 75% | at least 75% | 
14 | Cc1ccc(C(C)C)c(N2C(=O)CSC2=NC(=O)Nc2ccc(-n3nc(C)c(NC(=O)c4cc(F)c(F)cc4F)c3C)cc2)c1 [Example C-120] | at least 75% | at least 50% | at least 75% | at least 75% |  |  | at least 75% | 
15 | Cc1nn(-c2ccc(NC(=O)NC(=S)Nc3ccccc3C(C)C)cc2)cc1NC(=O)c1ccc(OC(F)(F)F)cc1 [Example C-126] | at least 75% | at least 50% | at least 75% | at least 75% |  |  | at least 75% | 
16 | Cc1ccc(C(C)C)c(N2CCSC2=NC(=O)Nc2ccc(-n3nc(C)c(NC(=O)c4ccc(OC(F)(F)F)cc4)c3C)cc2Cl)c1 [Example C-128] | at least 75% | at least 50% | at least 75% | at least 75% |  |  | at least 75% | 

Reference: patent US20260354380A1, “PYRAZOLO PESTICIDAL COMPOUNDS” (BASF SE, priority 2022, published 2026)
